Data as given in patent US11274118B2 (priority 2012, dated 2022).
Values after ≈ are worked out from the molar mass of the structure shown. Where two headings read alike, the source gives them in different places.

Legend:
[1] = human plasma
[2] = male, Sprague-Dawley (SD), rat, in vivo, iv, 10 mg/kg
[3] = physchem; conditions: kinetic from dmso stock
[4] = Exposure to rat S9 liver fractions; format: in vitro ADME; conditions: hydrochloride
[5] = tested on: cerebral edema in rats following bilateral cortical contusion; conditions: rat; for reduction of brain edema after 24 hours compared to untreated rats: in vivo
[6] = physchem; conditions: pH 7
[7] = tested on: Primary cortical cells; assay: Reduction of neuronal cell death after a glutamate challenge (MTT / LDH release); format: cell-based; conditions: for inhibition at 5 µM: 24 h, read-out: reduction in cell death at a 5 μM dose; for dose at maximum efficacy: primary cortical cells; for Emax: read-out: maximum efficacy, reduction in cell death
[8] = physchem; conditions: aqueous with cosolvent or surfactant or cyclodextrin
[9] = Rat pharmacokinetic profile, i.m. injection; format: in vivo; conditions: rats
Procedure: PK Animal Methods. Rat PK studies were done in jugular cannulated male SD rats, weighing 250-300 grams. 7 was dosed i.v. and i.m.; 13 was dosed i.m. only. For i.v. dosing 7 was formulated in PEG 300/glycofurol/Tween 80/water (26/5/2/67) and dosed @ 10 mg/kg and 3.3 ml/kg. For i.m. dosing, both compounds were formulated in propylene glycol/Tween 80/50 mM Citrate, pH 5.0 (40/4/56) and dosed @10 mg/kg and 1 ml/kg into the upper leg. Blood samples (0.3 ml) were taken at 0.25, 0.50, 1, 2, 4, 6 & 8 hours in the i.m. experiments; the same time points were used for the i.v. experiment, with the addition of an early 0.08 hr (5 min) time point. Samples were collected in either Li heparin or K EDTA microtainers, centrifuged at 2000×g for 10 minutes. Plasma was then transferred to 2 ml Eppendorf tubes, frozen on dry ice and transferred to a −80° C. freezer for storage until analysis for prodrug, oxime and progesterone by LC/MS/MS, followed by pharmacokinetic analysis by WinNonlin.

[10] = rat plasma
[11] = In vitro metabolism in human liver microsomes; conditions: human liver microsomes at 37° C., 0-60 min
[12] = tested on: moderate to severe TBI patients; conditions: 3 days of intravenous treatment, 100 moderate to severe TBI patients; cited from earlier work
[13] = buffer

SMILES	conversion to progesterone [1]	plasma levels of parent, free oxime and progesterone [2]	solubility at 90 min ([3]; pH 4, aqueous buffer) [µM]	solubility at 90 min ([3]; pH 7, aqueous buffer) [µM]	reduction of brain edema after 24 hours compared to untreated rats [5] [%]	inhibition at 5 µM [7] [%]	dose at maximum efficacy ([7]; glutamate challenge) [µM]	Emax [7] [%]	plasma levels of free oxime, parent prodrug and progesterone [9]	conversion to progesterone [10]	also measured
C/C(=N\OC(=O)[C@@H](N)C(C)C)[C@H]1CC[C@H]2[C@@H]3CCC4=CC(=O)CC[C@]4(C)[C@H]3CC[C@]12C.Cl [Compound 7, (8S,9S,10R,13 S,14S,17S)-17-((E)-1-((S)-2-Amino-3-methylbutanoyloxyimino)ethyl)-10,13-dimethyl-6,7,8,9,10,11,12,13,14,15,16,17-dodecahydro-1H-cyclopenta[a]phenanthren-3 (2H)-one hydrochloride]	neither of the test compounds were converted to progesterone	low levels of the parent compound 7 was observed, high levels of the relative free oxime 3, and therapeutic levels of progesterone	> 645	146	56	24	5	24	generated measurable concentrations of the corresponding oximes without evidence of either the parent prodrug or progesterone	neither of the test compounds were converted to progesterone	levels of progesterone produced, compared with compound 1 [2]: superior to those generated by compound 1; metabolism in rat S9 liver fractions [4]: relatively stable and no measurable quantities of progesterone were generated; half-life ([6]; buffer): 11.4 h; solubility [8]: ≥ 60000 µM; Cmax and AUC, compared with 1 [9]: significantly higher Cmax and AUC than the relative C-3 oxime 1
CC(=O)[C@H]1CC[C@H]2[C@@H]3CCC4=C/C(=N/OC(=O)[C@@H](N)C(C)C)CC[C@]4(C)[C@H]3CC[C@]12C.Cl [Compound 1, (S)-1-((E)-((8S,9S,10R,13S,14S,17S)-17-Acetyl-10,13-dimethyl-7,8,9,11-tetrahydro-1H-cyclopenta[a]phenanthren-3 (2H,6H, 1 OH, 12H, 13H, 14H, 15H, 16H, 17H)-ylidene)aminooxy)-2-amino-3-methylbutan-1-one Hydrochloride]	neither of the test compounds were converted to progesterone	hydrolyzed rapidly to provide large concentrations of the free oxime 2 and smaller concentrations of progesterone	322	172	59	27	5	27	generated measurable concentrations of the corresponding oximes without evidence of either the parent prodrug or progesterone	neither of the test compounds were converted to progesterone	metabolism in human liver microsomes [11]: hydrolyzed rapidly to the free oxime 2 as well as lesser quantities of progesterone; activity in in vitro and in vivo models of brain injury TBI [5]: activity similar to that of progesterone
CC(=O)[C@H]1CC[C@H]2[C@@H]3CCC4=CC(=O)CC[C@]4(C)[C@H]3CC[C@]12C [PROG, Progesterone, reference compound]	–	–	< 25	< 25	62	4	20	42	–	–	half-life ([6]; phosphate buffer): > 240 h; Aqueous solubility at pH 7 (90 min, pH 7): <25 μM; efficacy at the 5 μM dose ([7]; 5 μM, glutamate challenge): nearly ineffective; reduction of mortality [12]: over 60%
C/C(=N\OC(=O)CN(C)C)[C@H]1CC[C@H]2[C@@H]3CCC4=CC(=O)CC[C@]4(C)[C@H]3CC[C@]12C [Compound 10, (8S,9S,10R,13S,14S,17S)-17-((E)-1-(2-(Dimethylamino)acetoxyimino)ethyl)-10,13-dimethyl-6,7,8,9,10,11,12,13,14,15,16,17-dodecahydro-1H-cyclopenta[a]phenanthren-3(2H)-one]	–	–	449 (≈ 186 µg/mL)	171 (≈ 70.9 µg/mL)	–	–	–	–	–	–	Aqueous Stability t1/2 at pH = 7.0 [13]: 6.2 h
C/C(=N\O)[C@H]1CC[C@H]2[C@@H]3CCC4=CC(=O)CC[C@]4(C)[C@H]3CC[C@]12C [Compound 3, (8S,9S,10R,13S,14S,17S)-17-((E)-1-(Hydroxyimino)ethyl)-10,13-dimethyl-6,7,8,9,10,11,12,13,14,15,16,17-dodecahydro-1H-cyclopenta[a]phenanthren-3(2H)-one]	–	–	–	–	–	–	–	–	–	–	aqueous solubility (neutral pH): highly insoluble
